This is an account of results in US20170182049A1, “NOVEL THERAPEUTICS FOR BRAIN CANCER” (The Regents of the University of California, priority 2012, published 2017).

Entries after “also recorded” stand apart in the source; their conditions may differ.

For experiment [1], the system named is GBM4 cells. Nature of the experiment: GBM4 neurosphere viability (Alamar Blue). Conditions: grown as neurospheres, inhibitor given alone. Type of experiment: cell-based, human. Here is the method: (§1) Culture and assay system: Ink4a/arfEGFR-VIII mouse cells and U87 human GBM cells were cultured in DMEM medium with 10% FBS. GBM4 and GBM8 patient-derived tumor neurosphere lines were cultured in stem cell medium supplemented with FGF and EGF. Primary normal human astrocytes (NHA) were cultured in astrocyte medium (Life Technologies, Grand Island N.Y.) with EGF. Cytotoxicity of the compounds was assessed by […] (MTT) reduction assay (for Ink4a/arfEGFR-VIII cells) as described earlier (Rajesh M et al., Journal of the American Chemical Society 129:11408-11420 (2007)) or by Alamar Blue assay (for all other cell types). For the MTT reduction assay, Ink4a/arfEGFR-VIII cells were grown in 96-well plates at a concentration of ˜2000 cells per well overnight and all assays were conducted in DMEM medium with 10% FBS and additives. […] Cell viability for Ink4a/arfEGFR VIII cells was quantified at 540 nm after the addition of MTT (Sigma-Aldrich). Results were expressed as: […]
(§2) For GBM4, GBM8, U87, and NHA cell lines, viability was quantified by Alamar Blue Assay. […] Emission values at 590 nm were measured after the addition of Alamar Blue. Dose-response curves for MTT assays and Alamar Blue Assays were plotted and IC50 values were calculated by using GraphPad Prism (GraphPad Prism Software, Inc., La Jolla, Calif.).
(Alamar Blue is a resazurin reagent that responds to reducing activity.)

Experiment [2] has as its system GBM8 cells. Nature of the experiment: GBM8 neurosphere viability (Alamar Blue). Type of experiment: cell-based, human. The note with it: grown as neurospheres, inhibitor given alone. Here is the method: as §1, §2
The test system of experiment [3] is U87 human GBM cells. Nature of the experiment: U87 viability (Alamar Blue). In kind it is cell-based. The note with it: for IC50, U87 viability: U87 express low amounts of Olig2. As to the method: (§3) Culture and assay system: Ink4a/arfEGFR-VIII mouse cells and U87 human GBM cells were cultured in DMEM medium with 10% FBS. GBM4 and GBM8 patient-derived tumor neurosphere lines were cultured in stem cell medium supplemented with FGF and EGF. Primary normal human astrocytes (NHA) were cultured in astrocyte medium (Life Technologies, Grand Island N.Y.) with EGF. Cytotoxicity of the compounds was assessed by […] (MTT) reduction assay (for Ink4a/arfEGFR-VIII cells) as described earlier (Rajesh M et al., Journal of the American Chemical Society 129:11408-11420 (2007)) or by Alamar Blue assay (for all other cell types). For the MTT reduction assay, Ink4a/arfEGFR-VIII cells were grown in 96-well plates at a concentration of ˜2000 cells per well overnight and all assays were conducted in DMEM medium with 10% FBS and additives. For studies with inhibitor compounds, 10 mM stocks were serially diluted in dimethyl sulfoxide and further diluted into culture media to give appropriate concentrations while minimizing precipitation associated with serial dilutions in medium alone. Inhibitors were added to cells and left in the media for 72 hours. Cell viability for Ink4a/arfEGFR VIII cells was quantified at 540 nm after the addition of MTT (Sigma-Aldrich). Results were expressed as: […]
(§4) For GBM4, GBM8, U87, and NHA cell lines, viability was quantified by Alamar Blue Assay. In this assay, cells were treated with inhibitor compounds as described and Alamar Blue added after 72 hours. Emission values at 590 nm were measured after the addition of Alamar Blue. Dose-response curves for MTT assays and Alamar Blue Assays were plotted and IC50 values were calculated by using GraphPad Prism (GraphPad Prism Software, Inc., La Jolla, Calif.).

In experiment [4] the test system is normal human astrocytes (NHA). The experiment in a line: primary astrocyte viability (Alamar Blue). Conditions: for IC50, primary astrocyte viability: astrocytes express low amounts of Olig2. In kind it is cell-based. Here is the method: as §3, §4
The test system of experiment [5] is GBM4 neurospheres. Nature of the experiment: GBM4 neurosphere formation, light microscopy. In kind it is cell-based, human. The note with it: 0.1 uM and 5 uM, 72 h.
The test system of experiment [6] is p21. The experiment in a line: expression of p21, direct genetic target of OLIG2 (qPCR). Type of experiment: cell-based, human. The source says:
(§5) FIGS. 17A-17B. OLIG2 inhibitor affects expression of direct genetic targets of OLIG2. […] (FIG. 17A) Escalating OLIG2 inhibitor doses led to increased levels of p21.
(§6) mRNA was extracted from different cell lines with the AllPrep DNA/RNA Mini Kit (Qiagen, Inc.), followed by cDNA synthesis using the iScript cDNA Synthesis Kit (Bio-Rad, Inc). To investigate single-gene expression patterns, individual gene primers were purchased from Allele Biotechnology and Pharmaceuticals Inc. SYBR Green Real Time PCR master mixes were purchased from Roche Corporation. qPCR was performed with primers specific for OLIG2, p21, and OMG genes. Individual gene expression was normalized to expression of beta-Actin. Histograms show mean and standard error of the mean (SEM) from three separate experiments.
For orientation: Real-time PCR tracks product formation cycle by cycle.

In experiment [7] the test system is OMG. Nature of the experiment: expression of OMG, direct genetic target of OLIG2 (qPCR). Type of experiment: cell-based, human.
Description: as §5, §6

Where [8] appears, read: GBM4 cells, escalating doses (18 h in FIG. 17).

As for `CCN1CCCC(Nc2cc(C)nc(NC(=N)Nc3ccc(Cl)c(Cl)c3)n2)C1` (stereo not shown) [SKOG-102], the “suppression of GBM4 cells” value in experiment [1] is “markedly suppressed; also recorded: active”. Also, the “suppression of GBM8 cells” value in experiment [2] is reported as “markedly suppressed; also recorded: active”. For the same molecule, the “IC50, U87 viability” value in experiment [3] is given as “high”. Besides, in experiment [3] (compared with GBM4/8 cells), the “suppression of U87 cells” value is “a higher dose was needed”. Besides, the “IC50 of NHA relative to GBM4 cells” value in experiment [4] (NHA vs GBM4) is on record as ~20 fold. Moreover, the “IC50, primary astrocyte viability” value in experiment [4] is “high”. Further, in experiment [5], the “inhibition of neurosphere formation in GBM4 cells (active / inactive compound)” value is reported as “active”. The “expression of p21” value in experiment [6] (setting [8]) is “increased in a dose-dependent manner”. Moreover, in experiment [7] (setting [8]), the “expression of OMG” value is “suppressed; also recorded: decline”.

Consider `CCN1CCCC(Nc2cc(C)nc(NC(=N)Nc3ccc(Cl)c(Cl)c3)n2)C1` (stereo not shown) [SKOG-101], for which, in experiment [3], the “IC50, U87 viability” value is “high”. In addition, in experiment [4], the “IC50, primary astrocyte viability” value is recorded as “high”. In experiment [6] (FIG. 6, relative to vehicle control), the P21 levels result is listed as “rose markedly”. Besides, the “levels of OMG” value in experiment [7] (FIG. 7, relative to vehicle control) is “went down markedly”.
